US9409866B2, “Pyridine-2-amides useful as CB2 agonists” (Hoffmann-La Roche Inc., priority 2012, dated 2016)
Like-named read-outs stand apart in the source and are kept apart here.

Tests used:
human CB2 receptors = human CB2 receptors (Homo sapiens (Human), UniProt P34972); assay: functional cAMP assay, CHO cells expressing human CB2; assay type: cell-based; conditions: Human CB2 EC50 (uM)
Experimental: (§1) CHO cells expressing human CB1 or CB2 receptors are seeded 17-24 hours prior to the experiment 50.000 cells per well in a black 96 well plate with flat clear bottom (Corning Costar #3904) in DMEM (Invitrogen No. 31331), 1×HT supplement, with 10% fetal calf serum and incubated at 5% CO2 and 37° C. in a humidified incubator. The growth medium was exchanged with Krebs Ringer Bicarbonate buffer with 1 mM IBMX and incubated at 30° C. for 30 min. Compounds were added to a final assay volume of 100 μl and incubated for 30 min at 30° C. Using the cAMP-Nano-TRF detection kit the assay (Roche Diagnostics) was stopped by the addition of 50 μl lysis reagent (Tris, NaCl, 1.5% Triton X100, 2.5% NP40, 10% NaN3) and 50 μl detection solutions (20 μM mAb Alexa700-cAMP 1:1, and 48 μM Ruthenium-2-AHA-cAMP) and shaken for 2 h at room temperature. The time-resolved energy transfer is measured by a TRF reader (Evotec Technologies GmbH), equipped with a ND:YAG laser as excitation source. The plate is measured twice with the excitation at 355 nm and at the emission with a delay of 100 ns and a gate of 100 ns, total exposure time 10 s at 730 (bandwidth 30 nm) or 645 nm (bandwidth 75 nm), respectively. The FRET signal is calculated as follows: FRET=T730-Alexa730-P(T645-B645) with P=Ru730-B730/Ru645-B645, where T730 is the test well measured at 730 nM, T645 is the test well measured at 645 nm, B730 and B645 are the buffer controls at 730 nm and 645 nm, respectively. cAMP content is determined from the function of a standard curve spanning from 10 μM to 0.13 nM cAMP.
(§2) EC50 values were determined using Activity Base analysis (ID Business Solution, Limited). The EC50 values for a wide range of cannabinoid agonists generated from this assay were in agreement with the values published in the scientific literature.

human CB1 receptors = human CB1 receptors (Homo sapiens (Human), UniProt P21554); assay: functional cAMP assay, CHO cells expressing human CB1; assay type: cell-based; conditions: functional cAMP assay, CHO cells expressing human CB1
Experimental: as §1, §2

Chain of human CB1 receptors (P21554 whole entry): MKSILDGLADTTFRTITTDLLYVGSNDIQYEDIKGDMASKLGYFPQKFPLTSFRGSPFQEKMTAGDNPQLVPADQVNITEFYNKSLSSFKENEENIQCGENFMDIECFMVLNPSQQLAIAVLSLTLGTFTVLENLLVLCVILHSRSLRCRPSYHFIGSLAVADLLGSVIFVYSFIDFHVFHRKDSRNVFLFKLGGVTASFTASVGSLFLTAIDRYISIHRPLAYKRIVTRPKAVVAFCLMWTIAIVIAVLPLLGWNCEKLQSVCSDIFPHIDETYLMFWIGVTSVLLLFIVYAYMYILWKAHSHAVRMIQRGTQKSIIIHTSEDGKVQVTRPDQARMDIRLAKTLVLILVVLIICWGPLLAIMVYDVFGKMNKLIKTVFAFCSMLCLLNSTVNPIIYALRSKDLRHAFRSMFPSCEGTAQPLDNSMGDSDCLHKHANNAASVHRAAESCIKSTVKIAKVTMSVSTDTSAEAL
Chain of human CB2 receptors (P34972 whole entry): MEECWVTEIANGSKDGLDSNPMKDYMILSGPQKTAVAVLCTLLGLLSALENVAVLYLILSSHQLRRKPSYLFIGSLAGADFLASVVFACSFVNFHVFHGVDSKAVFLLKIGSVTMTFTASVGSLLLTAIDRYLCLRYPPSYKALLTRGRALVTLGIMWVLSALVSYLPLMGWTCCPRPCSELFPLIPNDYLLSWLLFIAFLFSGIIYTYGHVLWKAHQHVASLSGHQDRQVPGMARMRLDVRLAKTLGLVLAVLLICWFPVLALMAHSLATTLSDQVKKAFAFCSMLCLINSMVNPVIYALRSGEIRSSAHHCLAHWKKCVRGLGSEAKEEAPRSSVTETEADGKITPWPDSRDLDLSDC

Cc1nc(C(C)(CC2CC2)NC(=O)c2cc(OCC(F)F)c(C3CC3)cn2)no1 (single isomer, unassigned) [Example 155, 5-cyclopropyl-N-[1-cyclopropyl-2-(5-methyl-1,2,4-oxadiazol-3-yl)propan-2-yl]-4-(2,2-difluoroethoxy)pyridine-2-carboxamide]
EC50 (human CB2 receptors): 0.0058 µM | EC50 (human CB1 receptors; read-out: Human CB1 EC50): > 10 µM

Cc1nc(C(C)(CC2CC2)NC(=O)c2cc(OCCF)c(C3CC3)cn2)no1 (single isomer, unassigned) [Example 156, 5-cyclopropyl-N-[1-cyclopropyl-2-(5-methyl-1,2,4-oxadiazol-3-yl)propan-2-yl]-4-(2-fluoroethoxy)pyridine-2-carboxamide]
EC50 (human CB2 receptors): 0.0047 µM | EC50 (human CB1 receptors; Human CB1 EC50 (uM)): > 10 µM

Cc1nc(C(C)(CC2CC2)NC(=O)c2cc(OCCF)c(C3CC3)cn2)no1 (single isomer, unassigned) [Example 157, 5-cyclopropyl-N-[1-cyclopropyl-2-(5-methyl-1,2,4-oxadiazol-3-yl)propan-2-yl]-4-(2-fluoroethoxy)pyridine-2-carboxamide]
EC50 (human CB2 receptors): 0.0036 µM | EC50 (human CB1 receptors; read-out: Human CB1 EC50): > 10 µM

Cc1nc(C(C)(NC(=O)c2cc(OCC(F)(F)F)c(C3(F)COC3)cn2)C2CC2)no1 (single isomer, unassigned) [Example 166, N-[1-cyclopropyl-1-(5-methyl-1,2,4-oxadiazol-3-yl)ethyl]-5-(3-fluorooxetan-3-yl)-4-(2,2,2-trifluoroethoxy)pyridine-2-carboxamide]
EC50 (human CB2 receptors): 0.31 µM | EC50 (human CB1 receptors; Human CB1 EC50 (uM)): > 10 µM

Cc1nc(C(C)(NC(=O)c2cc(OCC(F)(F)F)c(C3(F)COC3)cn2)C2CC2)no1 (single isomer, unassigned) [Example 167, N-[1-cyclopropyl-1-(5-methyl-1,2,4-oxadiazol-3-yl)ethyl]-5-(3-fluorooxetan-3-yl)-4-(2,2,2-trifluoroethoxy)pyridine-2-carboxamide]
EC50 (human CB2 receptors): 0.0281 µM | EC50 (human CB1 receptors; read-out: Human CB1 EC50): > 10 µM

Cc1nnc(C(NC(=O)c2cc(OCC(F)(F)F)c(C3CC3)cn2)C(C)(C)C)o1 (single isomer, unassigned) [Example 178, 5-cyclopropyl-N-[2,2-dimethyl-1-(5-methyl-1,3,4-oxadiazol-2-yl)propyl]-4-(2,2,2-trifluoroethoxy)pyridine-2-carboxamide]
EC50 (human CB2 receptors): 0.0105 µM | EC50 (human CB1 receptors; Human CB1 EC50 (uM)): > 10 µM

Cc1nnc(C(NC(=O)c2cc(OCC(F)(F)F)c(C3CC3)cn2)C(C)(C)C)o1 (single isomer, unassigned) [Example 179, 5-cyclopropyl-N-[2,2-dimethyl-1-(5-methyl-1,3,4-oxadiazol-2-yl)propyl]-4-(2,2,2-trifluoroethoxy)pyridine-2-carboxamide]
EC50 (human CB2 receptors): 0.0351 µM | EC50 (human CB1 receptors; read-out: Human CB1 EC50): > 10 µM

Cc1nnc(C(C)(CC2CC2)NC(=O)c2cc(OCC(F)(F)F)c(C3CC3)cn2)o1 (single isomer, unassigned) [Example 184, 5-cyclopropyl-N-[1-cyclopropyl-2-(5-methyl-1,3,4-oxadiazol-2-yl)propan-2-yl]-4-(2,2,2-trifluoroethoxy)pyridine-2-carboxamide]
EC50 (human CB2 receptors): 0.0856 µM | EC50 (human CB1 receptors; Human CB1 EC50 (uM)): > 10 µM

Cc1nnc(C(C)(CC2CC2)NC(=O)c2cc(OCC(F)(F)F)c(C3CC3)cn2)o1 (single isomer, unassigned) [Example 185, 5-cyclopropyl-N-[1-cyclopropyl-2-(5-methyl-1,3,4-oxadiazol-2-yl)propan-2-yl]-4-(2,2,2-trifluoroethoxy)pyridine-2-carboxamide]
EC50 (human CB2 receptors): 0.0302 µM | EC50 (human CB1 receptors; read-out: Human CB1 EC50): > 10 µM

CNC(=O)C(C)(NC(=O)c1cc(OCC(F)(F)F)c(C2CC2)cn1)c1noc(C)n1 (single isomer, unassigned) [Example 187, 5-cyclopropyl-N-[1-(methylamino)-2-(5-methyl-1,2,4-oxadiazol-3-yl)-1-oxopropan-2-yl]-4-(2,2,2-trifluoroethoxy)pyridine-2-carboxamide]
EC50 (human CB2 receptors): 0.416 µM | EC50 (human CB1 receptors; Human CB1 EC50 (uM)): > 10 µM

CNC(=O)C(C)(NC(=O)c1cc(OCC(F)(F)F)c(C2CC2)cn1)c1noc(C)n1 (single isomer, unassigned) [Example 188, 5-cyclopropyl-N-[1-(methylamino)-2-(5-methyl-1,2,4-oxadiazol-3-yl)-1-oxopropan-2-yl]-4-(2,2,2-trifluoroethoxy)pyridine-2-carboxamide]
EC50 (human CB2 receptors): 0.0206 µM | EC50 (human CB1 receptors; read-out: Human CB1 EC50): > 10 µM

Cn1nnnc1C(NC(=O)c1cc(OCC(F)(F)F)c(C2CC2)cn1)C(C)(C)C (single isomer, unassigned) [Example 205, 5-cyclopropyl-N-[2,2-dimethyl-1-(1-methyltetrazol-5-yl)propyl]-4-(2,2,2-trifluoroethoxy)pyridine-2-carboxamide]
EC50 (human CB2 receptors): 0.108 µM | EC50 (human CB1 receptors; Human CB1 EC50 (uM)): > 10 µM

Cn1nnnc1C(NC(=O)c1cc(OCC(F)(F)F)c(C2CC2)cn1)C(C)(C)C (single isomer, unassigned) [Example 206, 5-cyclopropyl-N-[2,2-dimethyl-1-(1-methyltetrazol-5-yl)propyl]-4-(2,2,2-trifluoroethoxy)pyridine-2-carboxamide]
EC50 (human CB2 receptors): 0.0393 µM | EC50 (human CB1 receptors; read-out: Human CB1 EC50): > 10 µM

CC(CC1CC1)(NC(=O)c1cc(OCC(F)(F)F)c(C2CC2)cn1)c1noc(N)n1 (single isomer, unassigned) [Example 207, N-[2-(5-amino-1,2,4-oxadiazol-3-yl)-1-cyclopropylpropan-2-yl]-5-cyclopropyl-4-(2,2,2-trifluoroethoxy)pyridine-2-carboxamide]
EC50 (human CB2 receptors): 0.0083 µM | EC50 (human CB1 receptors; Human CB1 EC50 (uM)): > 10 µM

CC(CC1CC1)(NC(=O)c1cc(OCC(F)(F)F)c(C2CC2)cn1)c1noc(N)n1 (single isomer, unassigned) [Example 208, N-[2-(5-amino-1,2,4-oxadiazol-3-yl)-1-cyclopropylpropan-2-yl]-5-cyclopropyl-4-(2,2,2-trifluoroethoxy)pyridine-2-carboxamide]
EC50 (human CB2 receptors): 0.0092 µM | EC50 (human CB1 receptors; read-out: Human CB1 EC50): > 10 µM

Cn1nnc(C(NC(=O)c2cc(OCC(F)(F)F)c(C3CC3)cn2)C(C)(C)C)n1 (single isomer, unassigned) [Example 209, 5-cyclopropyl-N-[2,2-dimethyl-1-(2-methyltetrazol-5-yl)propyl]-4-(2,2,2-trifluoroethoxy)pyridine-2-carboxamide]
EC50 (human CB2 receptors): 0.0048 µM | EC50 (human CB1 receptors; Human CB1 EC50 (uM)): > 10 µM

Cn1nnc(C(NC(=O)c2cc(OCC(F)(F)F)c(C3CC3)cn2)C(C)(C)C)n1 (single isomer, unassigned) [Example 210, 5-cyclopropyl-N-[2,2-dimethyl-1-(2-methyltetrazol-5-yl)propyl]-4-(2,2,2-trifluoroethoxy)pyridine-2-carboxamide]
EC50 (human CB2 receptors): 0.0042 µM | EC50 (human CB1 receptors; read-out: Human CB1 EC50): > 10 µM

Cc1nc(C(NC(=O)c2cc(OCC(F)(F)F)c(C3CC3)cn2)C(C)(C)C)no1 (single isomer, unassigned) [Example 211, 5-cyclopropyl-N-[2,2-dimethyl-1-(5-methyl-1,2,4-oxadiazol-3-yl)propyl]-4-(2,2,2-trifluoroethoxy)pyridine-2-carboxamide]
EC50 (human CB2 receptors): 0.0048 µM | EC50 (human CB1 receptors; Human CB1 EC50 (uM)): > 10 µM

Cc1nc(C(NC(=O)c2cc(OCC(F)(F)F)c(C3CC3)cn2)C(C)(C)C)no1 (single isomer, unassigned) [Example 212, 5-cyclopropyl-N-[2,2-dimethyl-1-(5-methyl-1,2,4-oxadiazol-3-yl)propyl]-4-(2,2,2-trifluoroethoxy)pyridine-2-carboxamide]
EC50 (human CB2 receptors): 0.005 µM | EC50 (human CB1 receptors; read-out: Human CB1 EC50): > 10 µM

CNC(=O)C(NC(=O)c1cc(OCC(F)(F)F)c(C2CC2)cn1)C(C)(C)C (single isomer, unassigned) [Example 224, 5-cyclopropyl-N-[3,3-dimethyl-1-(methylamino)-1-oxobutan-2-yl]-4-(2,2,2-trifluoroethoxy)pyridine-2-carboxamide]
EC50 (human CB2 receptors): 0.0573 µM | EC50 (human CB1 receptors; Human CB1 EC50 (uM)): > 10 µM

CNC(=O)C(NC(=O)c1cc(OCC(F)(F)F)c(C2CC2)cn1)C(C)(C)C (single isomer, unassigned) [Example 225, 5-cyclopropyl-N-[3,3-dimethyl-1-(methylamino)-1-oxobutan-2-yl]-4-(2,2,2-trifluoroethoxy)pyridine-2-carboxamide]
EC50 (human CB2 receptors): 0.0004 µM | EC50 (human CB1 receptors; read-out: Human CB1 EC50): > 10 µM

CC(C)(C)C(NC(=O)c1cc(OCC(F)(F)F)c(C2CC2)cn1)c1noc(N)n1 (single isomer, unassigned) [Example 226, N-[1-(5-amino-1,2,4-oxadiazol-3-yl)-2,2-dimethylpropyl]-5-cyclopropyl-4-(2,2,2-trifluoroethoxy)pyridine-2-carboxamide]
EC50 (human CB2 receptors): 0.0065 µM | EC50 (human CB1 receptors; Human CB1 EC50 (uM)): > 10 µM

CC(C)(C)C(NC(=O)c1cc(OCC(F)(F)F)c(C2CC2)cn1)c1noc(N)n1 (single isomer, unassigned) [Example 227, N-[1-(5-amino-1,2,4-oxadiazol-3-yl)-2,2-dimethylpropyl]-5-cyclopropyl-4-(2,2,2-trifluoroethoxy)pyridine-2-carboxamide]
EC50 (human CB2 receptors): 0.015 µM | EC50 (human CB1 receptors; read-out: Human CB1 EC50): > 10 µM
